Test results from US6420367B1, “Pyrimidine derivatives exhibiting antitumor activity” (Shionogo & Co., Ltd., priority 1998, dated 2002).
≈ marks a conversion by molar mass, not a printed value.

Experiments:
[1] = system: DT-R cells (pRRE3-luc-transfected v-ki-ras-transformed NIH3T3 cells); signal derived from Ras oncogene products; test: Inhibitory effect against cellular signaling derived from Ras oncogene products: luciferase reporter, dissociation of DT-R from DT-C activity (MAC); type: cell-based, mouse; conditions: minimal tested concentration at which luciferase activities of DT-C cells and DT-R cells dissociated
Method in brief: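 DT-R (pRRE3-luc) and control DT-C (pGV-P) v-Ki-ras NIH3T3 cells were exposed 24 h to compound in 3-fold dilutions in DMEM/10% FCS at 37 °C, then lysed for luciferase luminescence. MAC is the lowest tested concentration at which DT-R and DT-C activities dissociate.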

[2] = system: DT-C cells (pGV-P-transfected v-ki-ras-transformed NIH3T3 cells); test: Luciferase activity in control DT-C cells (IC50-C): non-specific transcription-inhibitory effect or cytotoxicity; type: cell-based, mouse; conditions: tested concentration nearest to 50% inhibition in DT-C cells, index of non-specific transcription inhibition or cytotoxicity
Method in brief: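 Luciferase from an SV40 minimal promoter was read in DT-C cells (2500 cells/well) 24 h after compound addition at […] to 0.51 ng/ml in 3-fold steps. IC50-C is the tested concentration nearest 50% inhibition.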

human colon cancer HT29 = test: In vitro cell growth inhibition test, MTT assay; type: cell-based; conditions: MTT assay 4 days after compound addition
Method in brief: (§1)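 Growth inhibition was measured by MTT assay across a panel of human tumour cell lines that also included pancreatic cancer PANC-1.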

[3] = system: human lung adenocarcinoma A549; test: In vitro cell growth inhibition test, MTT assay; type: cell-based; conditions: MTT assay 4 days after compound addition
Method in brief: as §1

[4] = system: human pancreas cancer PANC-1; test: In vitro cell growth inhibition test, MTT assay; type: cell-based; conditions: MTT assay 4 days after compound addition
Method in brief: as §1

[5] = system: human squamous lung cancer Ma44; test: In vitro cell growth inhibition test, MTT assay; type: cell-based; conditions: MTT assay 4 days after compound addition
Method in brief: as §1

[6] = system: human squamous lung cancer RERF-RC-AI; test: In vitro cell growth inhibition test, MTT assay; type: cell-based; conditions: MTT assay 4 days after compound addition
Method in brief: as §1

[7] = system: Murine colon cancer Colon 26; test: Evaluation of in vivo antitumor efficacy, tumor growth inhibition; design: species or system mouse; conditions: Colon 26 in Balb/c mice; 30 mg/kg orally daily for 14 days; P<0.01
From the text: (§2) Test Example 3 Evaluation of in Vivo Antitumor Efficacy
(§3) Murine colon cancer Colon 26, human lung cancer RERF-LC-AI and human lung cancer Ma44 were used. Murine- and human-derived tumor cells were maintained by serial transplantation in Balb/c and Balb/c nude mice, respectively. After tumor implantation, compound A-42 suspended in 5% methylcellulose solution were orally administered daily for 14 days. Tumor size (short diameter and long diameter) was scored throughout the experiment and tumor volume was calculated. Antitumor efficacy was evaluated as growth inhibition which was estimated by Treated/Control ratio and shown as % inhibition.

human lung cancer Ma44 = test: as above; design: species or system mouse; conditions: Ma44 in Balb/c nude mice; 30 mg/kg orally daily for 14 days; P<0.01
From the text: as §2, §3

[8] = system: human lung cancer RERF-LC-AI; test: as above; conditions: RERF-LC-AI in Balb/c nude mice; 30 mg/kg orally daily for 14 days; P<0.01
From the text: as §2, §3

SMILES	IC50 (human colon cancer HT29; Homo sapiens, HT-29, 96 h) [µg/mL]	IC50 ([3]; Homo sapiens, A549, 96 h) [µg/mL]	IC50 ([4]; Homo sapiens, PANC-1, 96 h) [µg/mL]	IC50 ([5]; Homo sapiens, 96 h) [µg/mL]	IC50 ([6]; Homo sapiens, 96 h, read-out: IC50, RERF-LC-AI) [µg/mL]	melting point [°C]	IC50, HT29 (human colon cancer HT29) [µg/mL]	IC50, A549 [3] [µg/mL]	IC50, PANC-1 [4] [µg/mL]	IC50, Ma44 [5] [µg/mL]	IC50, RERF-LC-AI [6] [µg/mL]	MAC (Minimal Active Concentration) [1] [µg/mL]	IC50 ([2]; Mus musculus, NIH3T3) [µg/mL]	IC50-C [2] [µg/mL]	Growth inhibition (Treated/Control ratio, shown as % inhibition) [7] [%]	Growth inhibition (Treated/Control ratio, shown as % inhibition) (human lung cancer Ma44) [%]	Growth inhibition (Treated/Control ratio, shown as % inhibition) [8] [%]
CCNC(=Nc1ncncc1CSc1nnc(-c2ccccc2N)o1)NCC [Compound A-33]	–	–	–	–	–	–	0.0071 (≈ 0.0178 µM)	0.012 (≈ 0.0301 µM)	0.0076 (≈ 0.0191 µM)	0.0087 (≈ 0.0218 µM)	0.004 (≈ 0.01 µM)	0.0137	–	>10	–	–	–
CCNC(=Nc1nc(C)ncc1CSc1nnc(-c2ccc(N)cc2)o1)NCC [Compound A-42]	–	–	–	–	–	–	0.011 (≈ 0.0267 µM)	–	–	0.049 (≈ 0.119 µM)	0.0083 (≈ 0.0201 µM)	0.0137	–	>10	70	66	74
CNC(=Nc1nc(C)ncc1CSc1nnc(-c2ccc(N)cc2)o1)NC [Compound A-147]	–	–	–	–	–	–	0.008 (≈ 0.0208 µM)	0.1 (≈ 0.26 µM)	0.018 (≈ 0.0468 µM)	0.071 (≈ 0.185 µM)	0.008 (≈ 0.0208 µM)	0.123	–	>10	–	–	–
CCNC(=Nc1nc(C)ncc1CSc1nnc(-c2ccsc2N)o1)NCC [Compound D-8]	–	–	–	–	–	–	0.03 (≈ 0.0717 µM)	0.027 (≈ 0.0645 µM)	0.013 (≈ 0.0311 µM)	0.036 (≈ 0.086 µM)	0.012 (≈ 0.0287 µM)	0.0412	–	>10	–	–	–
CCNC(=Nc1ncncc1CSc1nnc(-c2ccncc2N)o1)NCC [Compound D-37]	–	–	–	–	–	–	0.015 (≈ 0.0375 µM)	0.028 (≈ 0.0701 µM)	0.013 (≈ 0.0325 µM)	0.024 (≈ 0.0601 µM)	0.011 (≈ 0.0275 µM)	0.123	–	>10	–	–	–
CCNC(=Nc1nc(C)ncc1CSc1nnc(-c2ccc(Cl)cc2Cl)o1)NCC [Compound A-80]	–	–	–	–	–	–	0.024 (≈ 0.0515 µM)	0.1 (≈ 0.214 µM)	0.05 (≈ 0.107 µM)	0.062 (≈ 0.133 µM)	0.018 (≈ 0.0386 µM)	0.370	–	3.33 (≈ 7.14 µM)	–	–	–
CCNC(=Nc1ncncc1CSc1nnc(-c2ccncc2)o1)NCC [Compound D-41]	–	–	–	–	–	–	0.04 (≈ 0.104 µM)	0.07 (≈ 0.182 µM)	0.049 (≈ 0.127 µM)	0.055 (≈ 0.143 µM)	0.024 (≈ 0.0624 µM)	1.11	–	>10	–	–	–
CCCNC(=Nc1nc(C)ncc1CSc1nnc(-c2ccc(C)cc2)o1)NCCC [Compound A-143]	–	–	–	–	–	–	0.024 (≈ 0.0546 µM)	0.052 (≈ 0.118 µM)	0.02 (≈ 0.0455 µM)	0.033 (≈ 0.0751 µM)	0.023 (≈ 0.0523 µM)	0.0412	–	1.11 (≈ 2.53 µM)	–	–	–
CCCCNC(=Nc1nc(C)ncc1CSc1nnc(-c2ccc([N+](=O)[O-])cc2)o1)NCC [Compound A-136]	–	–	–	–	–	–	0.011 (≈ 0.0234 µM)	0.031 (≈ 0.0659 µM)	0.016 (≈ 0.034 µM)	0.016 (≈ 0.034 µM)	0.012 (≈ 0.0255 µM)	0.0137	–	3.33 (≈ 7.08 µM)	–	–	–

Continued, in another order:

IC50 (human colon cancer HT29; Homo sapiens, HT-29, 96 h) [µg/mL]	IC50 ([3]; Homo sapiens, A549, 96 h) [µg/mL]	IC50 ([4]; Homo sapiens, PANC-1, 96 h) [µg/mL]	IC50 ([5]; Homo sapiens, 96 h) [µg/mL]	IC50 ([6]; Homo sapiens, 96 h, read-out: IC50, RERF-LC-AI) [µg/mL]	melting point [°C]	IC50, HT29 (human colon cancer HT29) [µg/mL]	IC50, A549 [3] [µg/mL]	IC50, PANC-1 [4] [µg/mL]	IC50, Ma44 [5] [µg/mL]	IC50, RERF-LC-AI [6] [µg/mL]	SMILES	MAC (Minimal Active Concentration) [1] [µg/mL]	IC50 ([2]; Mus musculus, NIH3T3) [µg/mL]	IC50-C [2] [µg/mL]	Growth inhibition (Treated/Control ratio, shown as % inhibition) [7] [%]	Growth inhibition (Treated/Control ratio, shown as % inhibition) (human lung cancer Ma44) [%]	Growth inhibition (Treated/Control ratio, shown as % inhibition) [8] [%]
0.052 (≈ 0.117 µM)	0.063 (≈ 0.141 µM)	0.051 (≈ 0.114 µM)	0.056 (≈ 0.126 µM)	0.046 (≈ 0.103 µM)	156 to 157	–	–	–	–	–	CCN/C(=N\c1nc(C)ncc1CSc1nnc(-c2ccc([N+](=O)[O-])cc2)o1)SC [Compound G-1]	0.370	> 10	–	–	–	–
–	–	–	–	–	–	0.007 (≈ 0.0163 µM)	0.023 (≈ 0.0534 µM)	0.016 (≈ 0.0372 µM)	0.032 (≈ 0.0743 µM)	0.009 (≈ 0.0209 µM)	CCNC(=Nc1nc(C)ncc1CSc1nnc(-c2ccc(N)cc2F)o1)NCC [Compound A-81]	0.0412	–	>10	–	–	–
–	–	–	–	–	–	0.014 (≈ 0.0316 µM)	0.18 (≈ 0.407 µM)	0.024 (≈ 0.0542 µM)	0.052 (≈ 0.118 µM)	0.011 (≈ 0.0249 µM)	CCCNC(=Nc1nc(C)ncc1CSc1nnc(-c2ccc([N+](=O)[O-])cc2)o1)NC [Compound A-146]	0.0137	–	>10	–	–	–
–	–	–	–	–	–	0.013 (≈ 0.0275 µM)	0.022 (≈ 0.0466 µM)	0.012 (≈ 0.0254 µM)	0.047 (≈ 0.0995 µM)	0.015 (≈ 0.0317 µM)	CCCNC(=Nc1nc(CC)ncc1CSc1nnc(-c2ccc(F)cc2N)o1)NCCC [Compound A-140]	0.0137	–	3.33 (≈ 7.05 µM)	–	–	–
–	–	–	–	–	–	0.016 (≈ 0.0374 µM)	0.052 (≈ 0.122 µM)	0.029 (≈ 0.0678 µM)	0.048 (≈ 0.112 µM)	0.012 (≈ 0.0281 µM)	CCNC(=Nc1nc(C)ncc1CSc1nnc(-c2ccc(OC)cc2)o1)NCC [Compound A-73]	0.123	–	>10	–	–	–
–	–	–	–	–	–	0.006 (≈ 0.0136 µM)	0.019 (≈ 0.0431 µM)	0.016 (≈ 0.0363 µM)	0.031 (≈ 0.0704 µM)	0.007 (≈ 0.0159 µM)	CCCNC(=Nc1nc(C)ncc1CSc1nnc(-c2ccc(N)cc2)o1)NCCC [Compound A-144]	0.0137	–	>10	–	–	–
